Organism: Rattus norvegicus
Test: DrugMatrix - Regimen: Daily Repeat
Format: toxicity, organism-based, Sprague-Dawley
Set-up: regimen Daily Repeat, gender Male, age 6-8 weeks
Details: in vivo, po, route oral GAVAGE, vehicle 100 % SALINE; for ABSOLUTE EOSINOPHIL / ABSOLUTE LYMPHOCYTE / ABSOLUTE MONOCYTE / ABSOLUTE SEGMENTED NEUTROPHIL / BASOPHIL / EOSINOPHIL / ERYTHROCYTE COUNT / HEMATOCRIT / HEMOGLOBIN / LEUKOCYTE COUNT / LYMPHOCYTE / MEAN CORPUSCULAR HEMOGLOBIN / MEAN CORPUSCULAR HEMOGLOBIN CONCENTRATION / MEAN CORPUSCULAR VOLUME / MONOCYTE / NEUTROPHIL / NUCLEATED RED BLOOD CELLS / PLATELET COUNT / ABSOLUTE BASOPHIL: tissue Blood; for ALANINE AMINOTRANSFERASE / ALBUMIN / ALKALINE PHOSPHATASE / ASPARTATE AMINOTRANSFERASE / BLOOD UREA NITROGEN / CARBON DIOXIDE / CHLORIDE / CHOLESTEROL / CREATINE PHOSPHOKINASE / CREATININE / GLUCOSE / LACTATE DEHYDROGENASE / LIPASE / PHOSPHORUS / POTASSIUM / SODIUM / TOTAL BILIRUBIN / TOTAL PROTEIN / URIC ACID: tissue Plasma
[1] = 29 mg/kg, 120 h, dose level Low, time 5 day
[2] = 200 mg/kg, 72 h, dose level High, time 3 day
[3] = 200 mg/kg, 120 h, dose level High, time 5 day

Cc1ccnc2c1NC(=O)c1cccnc1N2C1CC1 [NEVIRAPINE]
ABSOLUTE EOSINOPHIL [1]: 0 CELLS/uL
ABSOLUTE LYMPHOCYTE [1]: 5766.33 CELLS/uL
ABSOLUTE MONOCYTE [1]: 26.67 CELLS/uL
ABSOLUTE SEGMENTED NEUTROPHIL [1]: 340.33 CELLS/uL
BASOPHIL [1]: 0%
EOSINOPHIL [1]: 0%
ERYTHROCYTE COUNT [1]: 5.58 x10E6/uL
HEMATOCRIT [1]: 33.7%
HEMOGLOBIN [1]: 13.2 G/DL
LEUKOCYTE COUNT [1]: 6.13 x10E3/uL
LYMPHOCYTE [1]: 94.33%
MEAN CORPUSCULAR HEMOGLOBIN [1]: 23.7 pg
MEAN CORPUSCULAR HEMOGLOBIN CONCENTRATION [1]: 39.2 G/DL
MEAN CORPUSCULAR VOLUME [1]: 60.4 fL
MONOCYTE [1]: 0.33%
NEUTROPHIL [1]: 5.33%
NUCLEATED RED BLOOD CELLS [1]: 0 /100WBC
PLATELET COUNT [1]: 1219 x10E3/uL
ALANINE AMINOTRANSFERASE [1]: 55.67 u/L
ALBUMIN [1]: 4.23 G/DL
ALKALINE PHOSPHATASE [1]: 280.33 u/L
ASPARTATE AMINOTRANSFERASE [1]: 82.33 u/L
BLOOD UREA NITROGEN [1]: 15.33 mg/dL
CARBON DIOXIDE [1]: 34.33 mmol/L
CHLORIDE [1]: 98.67 MEQ/L
CHOLESTEROL [1]: 74.33 mg/dL
CREATINE PHOSPHOKINASE [1]: 403.67 u/L
CREATININE [1]: 0.39 mg/dL
GLUCOSE [1]: 132.33 mg/dL
LACTATE DEHYDROGENASE [1]: 98.67 u/L
LIPASE [1]: 11 u/L
PHOSPHORUS [1]: 10.8 mg/dL
POTASSIUM [1]: 6.38 MEQ/L
SODIUM [1]: 144.43 MEQ/L
TOTAL BILIRUBIN [1]: 0.17 mg/dL
TOTAL PROTEIN [1]: 5.7 G/DL
URIC ACID [1]: 0.87 mg/dL
ABSOLUTE BASOPHIL [2]: 0 CELLS/uL
ABSOLUTE EOSINOPHIL [2]: 0 CELLS/uL
ABSOLUTE LYMPHOCYTE [2]: 4383.33 CELLS/uL
ABSOLUTE MONOCYTE [2]: 11.67 CELLS/uL
ABSOLUTE SEGMENTED NEUTROPHIL [2]: 905 CELLS/uL
BASOPHIL [2]: 0%
EOSINOPHIL [2]: 0%
ERYTHROCYTE COUNT [2]: 5.28 x10E6/uL
HEMATOCRIT [2]: 32.53%
HEMOGLOBIN [2]: 12.53 G/DL
LEUKOCYTE COUNT [2]: 5.3 x10E3/uL
LYMPHOCYTE [2]: 83%
MEAN CORPUSCULAR HEMOGLOBIN [2]: 23.9 pg
MEAN CORPUSCULAR HEMOGLOBIN CONCENTRATION [2]: 38.7 G/DL
MEAN CORPUSCULAR VOLUME [2]: 61.8 fL
MONOCYTE [2]: 0.33%
NEUTROPHIL [2]: 16.67%
NUCLEATED RED BLOOD CELLS [2]: 0.67 /100WBC
PLATELET COUNT [2]: 1104 x10E3/uL
ALANINE AMINOTRANSFERASE [2]: 63 u/L
ALBUMIN [2]: 4.4 G/DL
ALKALINE PHOSPHATASE [2]: 260.67 u/L
ASPARTATE AMINOTRANSFERASE [2]: 84.67 u/L
BLOOD UREA NITROGEN [2]: 16.33 mg/dL
CARBON DIOXIDE [2]: 27.67 mmol/L
CHLORIDE [2]: 101.67 MEQ/L
CHOLESTEROL [2]: 85.33 mg/dL
CREATINE PHOSPHOKINASE [2]: 227 u/L
CREATININE [2]: 0.11 mg/dL
GLUCOSE [2]: 145 mg/dL
LACTATE DEHYDROGENASE [2]: 139.67 u/L
LIPASE [2]: 12.33 u/L
PHOSPHORUS [2]: 10.8 mg/dL
POTASSIUM [2]: 5.63 MEQ/L
SODIUM [2]: 147 MEQ/L
TOTAL BILIRUBIN [2]: 0.13 mg/dL
TOTAL PROTEIN [2]: 5.9 G/DL
URIC ACID [2]: 1.03 mg/dL
ABSOLUTE BASOPHIL [3]: 0 CELLS/uL
ABSOLUTE EOSINOPHIL [3]: 0 CELLS/uL
ABSOLUTE LYMPHOCYTE [3]: 5735 CELLS/uL
ABSOLUTE MONOCYTE [3]: 88 CELLS/uL
ABSOLUTE SEGMENTED NEUTROPHIL [3]: 443.67 CELLS/uL
BASOPHIL [3]: 0%
EOSINOPHIL [3]: 0%
ERYTHROCYTE COUNT [3]: 5.22 x10E6/uL
HEMATOCRIT [3]: 33.87%
HEMOGLOBIN [3]: 13.47 G/DL
LEUKOCYTE COUNT [3]: 6.27 x10E3/uL
LYMPHOCYTE [3]: 91.67%
MEAN CORPUSCULAR HEMOGLOBIN [3]: 25.83 pg
MEAN CORPUSCULAR HEMOGLOBIN CONCENTRATION [3]: 39.8 G/DL
MEAN CORPUSCULAR VOLUME [3]: 64.77 fL
MONOCYTE [3]: 1.33%
NEUTROPHIL [3]: 7%
NUCLEATED RED BLOOD CELLS [3]: 0.67 /100WBC
PLATELET COUNT [3]: 1370.67 x10E3/uL
ALANINE AMINOTRANSFERASE [3]: 55.67 u/L
ALBUMIN [3]: 4.03 G/DL
ALKALINE PHOSPHATASE [3]: 286 u/L
ASPARTATE AMINOTRANSFERASE [3]: 87 u/L
BLOOD UREA NITROGEN [3]: 13 mg/dL
CARBON DIOXIDE [3]: 33.67 mmol/L
CHLORIDE [3]: 99 MEQ/L
CHOLESTEROL [3]: 89.33 mg/dL
CREATINE PHOSPHOKINASE [3]: 578.67 u/L
CREATININE [3]: 0.38 mg/dL
GLUCOSE [3]: 136 mg/dL
LACTATE DEHYDROGENASE [3]: 142 u/L
LIPASE [3]: 10.33 u/L
PHOSPHORUS [3]: 10.57 mg/dL
POTASSIUM [3]: 6.07 MEQ/L
SODIUM [3]: 146.23 MEQ/L
TOTAL BILIRUBIN [3]: 0.13 mg/dL
TOTAL PROTEIN [3]: 6.13 G/DL
URIC ACID [3]: 0.63 mg/dL

Source: ChEMBL document CHEMBL3885881, “DrugMatrix”
